Columns and labels:
Male Sprague Dawley rats = experiment: Rat CFA in vivo model (mechanical hyperalgesia, paw withdrawal threshold); conditions: 2 hours post-compound
Method: Male Sprague Dawley rats were used. Mechanical hyperalgesia was induced by injecting 25 μL of Complete Freund's Adjuvant (CFA) into the plantar surface of one hind paw. Mechanical hyperalgesia was measured using the Pressure Application Measurement apparatus (Ugo Basile, Gemonio, Italy). Briefly, a linearly increasing pressure was applied to an area of ˜50 mm^2 of the plantar side of the hind paw until a behavioural response (paw withdrawal) was observed or until the pressure reached 1000 gf. The pressure at which the behavioural response occurred was recorded as the “Paw Withdrawal Threshold” (PWT). Both CFA-injected and contralateral PWTs were determined for each rat, in each treatment group and at each time point of the studies. The Compound Examples were administered orally in a vehicle of dimethylsulfoxide (DMSO), Polyethylenglycol (PEG) and 2-hydroxypropyl-beta-cyclodextrin (HPCD) (v/v/v=3:20:77). Rats received a first dose of […] of Compound Example per kg body weight 1 hour before CFA injection and a second dose 24 hours after the CFA injection. Mechanical hyperalgesia testing was performed approximately 2 hours before CFA injection, then 2 and 4 hours after the second dose of Compound Example (i.e. 26 and 28 hours after CFA treatment). Data were expressed as the mean±S.D. Area Under the Curve (AUC) of PWTs (defined in table 3 as “AUC of Paw withdrawal threshold (AUC 0-4 hours) post-vehicle” with respect to vehicle group or “AUC of Paw withdrawal threshold (AUC 0-4 hours) post-drug” with respect to Compound Example). Data were analysed by performing a one-way ANOVA followed by a Dunnett's post hoc test. For p values less than 0.05 the results were deemed to be statistically significant.

[1] = tested on: B6-Mice expressing the human B1 receptor; experiment: Mouse model for peritonitis (thioglycollate induced, peroxidase activity in lavage); format: in vivo; conditions: p.o. 30, 100 mg/kg, lavage 24 h after induction, significantly, FIG. 7
Method: 6. Mouse Model for Peritonitis
Black 6 (B6)-Mice expressing the human B1 receptor, lacking the murine B1 receptors which were specifically generated (B6-hBDKRB1 <tm1Arte>/N) and employed for a thioglycollate induced peritonitis model to test for effects of Bradykinin B1 receptor antagonism on peritoneal inflammation and related leukocyte trafficking which reflects the mode of actions underlying endometriosis.
Animals were treated p.o. with Compound Example 3 (doses: 30 mg/kg, 100 mg/kg) or respective vehicle (10% DMSO+90% phosphate buffered saline (PBS) alone 1 h before i.p. application of 1 ml 4% thioglycollate medium (in sterile PBS, matured for >4 weeks). The treatment with vehicle or Compund Example 3 was repeated 3 and 24 hours after induction of peritonitis. 24 h after peritonitis induction the animals were sacrificed and a lavage of peritoneal fluid performed. The resulting lavage is analysed for peroxidase enzyme activity which is reflecting number of activated neutrophils in the peritoneal cavity by peroxidase activity assay as follows:
Tetramethylbenzidine (TMB) dihydrochloride is used as a sensitive chromogen substrate for peroxidase. […]
Changes in optical densities (OD) are monitored in an ELISA plate-reader at 450 nm at 25° Celsius against the mixture of all solutions without the added sample homogenate. […]

O=C(O)c1cc(NC(=O)C2(c3ccc(C(F)(F)F)cc3F)CC2)ccc1-c1cnn(C2CCC2)c1 [Example 3, 2-(1-Cyclobutyl-1H-pyrazol-4-yl)-5-[({1-[2-fluoro-4-(trifluoromethyl)phenyl]cyclopropyl}carbonyl)amino]benzoic acid]
Paw withdrawal threshold 2 hours post-compound (Male Sprague Dawley rats; 0.75 mg/kg p.o.): 659 ± 20 gf (ns) | Paw withdrawal threshold 2 hours post-compound (Male Sprague Dawley rats; 3 mg/kg p.o.): 782 ± 50 gf (****) | Paw withdrawal threshold 2 hours post-compound (Male Sprague Dawley rats; 15 mg/kg p.o.): 812 ± 44 gf (****) | Paw withdrawal threshold 2 hours post-compound (Male Sprague Dawley rats; 60 mg/kg p.o.): 885 ± 30 gf (****) | signal specific for neutrophil influx into inflamed tissue (peroxidase activity) [1]: reduced

— patent US12023319B2, “Carboxylic acid aromatic amides” (priority 2016, dated 2024)
